According to patent US10259779B2 (WAYNE STATE UNIVERSITY, priority 2016, dated 2019):

Columns and labels:
[1] = biological target: HDAC1 (Homo sapiens, UniProt Q13547); assay: ELISA-based HDAC activity assay, HDAC1
[2] = biological target: HDAC2 (Homo sapiens, UniProt Q92769); assay: ELISA-based HDAC activity assay, HDAC2
[3] = system: HDAC proteins in HeLa cell lysates; assay: Global HDAC inhibition with HeLa cell lysates (HDAC-Glo I/II substrate); format: biochemical; conditions: for Deacetylase activity (%): Hela Lysate; for IC50: HeLa cell lysates
Method: HDAC activity was measured using the commercially available HDAC-Glo™ I/II substrate (Promega).
Lysates were prepared according to the reported procedure.^28 HeLa-S3 cells (purchased from Biovest) were lysed in lysis buffer (1×10^9 cells in 10 mL lysis buffer; 50 mM Tris-HCl, pH 8.0, 10% glycerol, 150 mM NaCl, 0.5% Triton X-100, and 1× protease inhibitor cocktail (GenDEPOT)) with rotation at 4° C. for 30 min. Cell debris was removed by centrifugation at 12000 rpm at 4° C. for 30 min. Protein concentration of the supernatant was determined using Bio-Rad protein assay (BioRad, Bradford reagent). Lysates were stored at −80° C.
To measure global HDAC inhibition, HeLa cell lysates (1 μg total protein) were mixed with HDAC-Glo™ buffer in polystyrene 96-well half area white plate (Corning) to a final volume of 12 μL, followed by addition of inhibitors in DMSO (0.5 μL) and incubation for 15 min at room temperature without rocking. An uninhibited control reaction was also included that contained DMSO (0.5 μL). Finally, deacetylase activity was measured using the HDAC-Glo™ assay kit (Promega) as per the manufacturer's protocol. Specifically, the HDAC-Glo™ substrate (1 mL) and developer ([…]) were first premixed to form the HDAC-Glo™ reagents. Then, to monitor deacetylase activity, HDAC-Glo™ reagent (5 μL) and HDAC-Glo™ buffer (7.5 μL) were added to each well (25 μL total volume) and incubated for 35 min at room temperature without rocking. The deacetylase activity was measured as luminescent signal using a GeniosPlus Fluorimeter (Tecan) at optimal gain. The concentrations of inhibitors reported in the dose-dependent studies (Table 2) are final concentrations after addition of HDAC-Glo™ reagent HDAC-Glo™ buffer.

[4] = biological target: T1, recombinant HDAC8 (Homo sapiens, UniProt Q9BY41); assay: Recombinant HDAC8 inhibition (HDAC-Glo); format: biochemical; conditions: for activity at 0.1 µM: 1.0 × 10^−7 M; for activity at 0.2 µM: 2.0 × 10^−7 M; for activity at […]: 2.5 × 10^−8 M; for activity at 0.05 µM: 5.0 × 10^−8 M; for HDAC8 fold selectivity HDAC1: HDAC8 over HDAC1; for HDAC8 fold selectivity HDAC1 / HDAC8 fold selectivity HDAC2 / HDAC8 fold selectivity HDAC3: calculated from IC50 values; for HDAC8 fold selectivity HDAC2: HDAC8 over HDAC2; for HDAC8 fold selectivity HDAC3: HDAC8 over HDAC3; for activity at 0.0125 µM: 1.25 × 10^−8 M; for fold selectivity for HDAC8 over HDAC1, 2, and 3: HDAC8 versus HDAC1, 2, 3
T1 construct: purchased BPS Bioscience
T1 sequence (Q9BY41 1-377): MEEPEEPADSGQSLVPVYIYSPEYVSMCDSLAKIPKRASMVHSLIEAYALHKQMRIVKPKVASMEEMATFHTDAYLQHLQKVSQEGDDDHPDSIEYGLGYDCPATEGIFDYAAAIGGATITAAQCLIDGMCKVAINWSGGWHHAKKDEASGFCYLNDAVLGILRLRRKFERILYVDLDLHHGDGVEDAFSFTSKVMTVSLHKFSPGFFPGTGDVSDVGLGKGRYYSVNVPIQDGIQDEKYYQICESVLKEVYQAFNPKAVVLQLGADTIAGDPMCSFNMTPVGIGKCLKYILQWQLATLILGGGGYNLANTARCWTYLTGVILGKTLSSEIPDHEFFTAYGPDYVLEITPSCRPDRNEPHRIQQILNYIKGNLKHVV
Method: Inhibitory activity with HDAC8 was measured using the following procedure. In a half area 96-well white opaque plate, recombinant HDAC8 (75 ng, BPS Bioscience) was incubated in HDAC-Glo™ buffer (39 μL) with inhibitor in DMSO (1 μL), or DMSO alone (1 μL) as a control, for 15 minutes at room temperature. HDAC-Glo™ reagent (10 μL) was added to each reaction and incubated for 30 min at room temperature. Luminescent signal was measured 30 minutes after adding the substrate reagent using a Geniosplus Fluorimeter (Tecan) at optimal gain. To determine IC50, the luminescent signal was first background corrected with the signal from a background control reaction where no HDAC8 enzyme was added.

[5] = biological target: HDAC3 (Homo sapiens, UniProt O15379); assay: ELISA-based HDAC activity assay, HDAC3
Chain of HDAC3 (O15379 whole entry): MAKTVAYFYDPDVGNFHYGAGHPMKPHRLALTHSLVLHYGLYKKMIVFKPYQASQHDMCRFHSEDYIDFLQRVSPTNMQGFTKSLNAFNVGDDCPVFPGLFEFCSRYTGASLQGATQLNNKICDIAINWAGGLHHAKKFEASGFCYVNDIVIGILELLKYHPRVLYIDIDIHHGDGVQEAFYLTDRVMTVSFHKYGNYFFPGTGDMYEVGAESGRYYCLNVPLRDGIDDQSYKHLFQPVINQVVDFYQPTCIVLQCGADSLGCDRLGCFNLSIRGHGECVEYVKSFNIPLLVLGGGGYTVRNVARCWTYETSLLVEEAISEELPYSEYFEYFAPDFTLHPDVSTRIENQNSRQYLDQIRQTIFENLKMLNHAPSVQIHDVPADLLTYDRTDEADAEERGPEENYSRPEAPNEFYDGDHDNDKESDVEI
Chain of HDAC3 (Q9Y618 whole entry partner): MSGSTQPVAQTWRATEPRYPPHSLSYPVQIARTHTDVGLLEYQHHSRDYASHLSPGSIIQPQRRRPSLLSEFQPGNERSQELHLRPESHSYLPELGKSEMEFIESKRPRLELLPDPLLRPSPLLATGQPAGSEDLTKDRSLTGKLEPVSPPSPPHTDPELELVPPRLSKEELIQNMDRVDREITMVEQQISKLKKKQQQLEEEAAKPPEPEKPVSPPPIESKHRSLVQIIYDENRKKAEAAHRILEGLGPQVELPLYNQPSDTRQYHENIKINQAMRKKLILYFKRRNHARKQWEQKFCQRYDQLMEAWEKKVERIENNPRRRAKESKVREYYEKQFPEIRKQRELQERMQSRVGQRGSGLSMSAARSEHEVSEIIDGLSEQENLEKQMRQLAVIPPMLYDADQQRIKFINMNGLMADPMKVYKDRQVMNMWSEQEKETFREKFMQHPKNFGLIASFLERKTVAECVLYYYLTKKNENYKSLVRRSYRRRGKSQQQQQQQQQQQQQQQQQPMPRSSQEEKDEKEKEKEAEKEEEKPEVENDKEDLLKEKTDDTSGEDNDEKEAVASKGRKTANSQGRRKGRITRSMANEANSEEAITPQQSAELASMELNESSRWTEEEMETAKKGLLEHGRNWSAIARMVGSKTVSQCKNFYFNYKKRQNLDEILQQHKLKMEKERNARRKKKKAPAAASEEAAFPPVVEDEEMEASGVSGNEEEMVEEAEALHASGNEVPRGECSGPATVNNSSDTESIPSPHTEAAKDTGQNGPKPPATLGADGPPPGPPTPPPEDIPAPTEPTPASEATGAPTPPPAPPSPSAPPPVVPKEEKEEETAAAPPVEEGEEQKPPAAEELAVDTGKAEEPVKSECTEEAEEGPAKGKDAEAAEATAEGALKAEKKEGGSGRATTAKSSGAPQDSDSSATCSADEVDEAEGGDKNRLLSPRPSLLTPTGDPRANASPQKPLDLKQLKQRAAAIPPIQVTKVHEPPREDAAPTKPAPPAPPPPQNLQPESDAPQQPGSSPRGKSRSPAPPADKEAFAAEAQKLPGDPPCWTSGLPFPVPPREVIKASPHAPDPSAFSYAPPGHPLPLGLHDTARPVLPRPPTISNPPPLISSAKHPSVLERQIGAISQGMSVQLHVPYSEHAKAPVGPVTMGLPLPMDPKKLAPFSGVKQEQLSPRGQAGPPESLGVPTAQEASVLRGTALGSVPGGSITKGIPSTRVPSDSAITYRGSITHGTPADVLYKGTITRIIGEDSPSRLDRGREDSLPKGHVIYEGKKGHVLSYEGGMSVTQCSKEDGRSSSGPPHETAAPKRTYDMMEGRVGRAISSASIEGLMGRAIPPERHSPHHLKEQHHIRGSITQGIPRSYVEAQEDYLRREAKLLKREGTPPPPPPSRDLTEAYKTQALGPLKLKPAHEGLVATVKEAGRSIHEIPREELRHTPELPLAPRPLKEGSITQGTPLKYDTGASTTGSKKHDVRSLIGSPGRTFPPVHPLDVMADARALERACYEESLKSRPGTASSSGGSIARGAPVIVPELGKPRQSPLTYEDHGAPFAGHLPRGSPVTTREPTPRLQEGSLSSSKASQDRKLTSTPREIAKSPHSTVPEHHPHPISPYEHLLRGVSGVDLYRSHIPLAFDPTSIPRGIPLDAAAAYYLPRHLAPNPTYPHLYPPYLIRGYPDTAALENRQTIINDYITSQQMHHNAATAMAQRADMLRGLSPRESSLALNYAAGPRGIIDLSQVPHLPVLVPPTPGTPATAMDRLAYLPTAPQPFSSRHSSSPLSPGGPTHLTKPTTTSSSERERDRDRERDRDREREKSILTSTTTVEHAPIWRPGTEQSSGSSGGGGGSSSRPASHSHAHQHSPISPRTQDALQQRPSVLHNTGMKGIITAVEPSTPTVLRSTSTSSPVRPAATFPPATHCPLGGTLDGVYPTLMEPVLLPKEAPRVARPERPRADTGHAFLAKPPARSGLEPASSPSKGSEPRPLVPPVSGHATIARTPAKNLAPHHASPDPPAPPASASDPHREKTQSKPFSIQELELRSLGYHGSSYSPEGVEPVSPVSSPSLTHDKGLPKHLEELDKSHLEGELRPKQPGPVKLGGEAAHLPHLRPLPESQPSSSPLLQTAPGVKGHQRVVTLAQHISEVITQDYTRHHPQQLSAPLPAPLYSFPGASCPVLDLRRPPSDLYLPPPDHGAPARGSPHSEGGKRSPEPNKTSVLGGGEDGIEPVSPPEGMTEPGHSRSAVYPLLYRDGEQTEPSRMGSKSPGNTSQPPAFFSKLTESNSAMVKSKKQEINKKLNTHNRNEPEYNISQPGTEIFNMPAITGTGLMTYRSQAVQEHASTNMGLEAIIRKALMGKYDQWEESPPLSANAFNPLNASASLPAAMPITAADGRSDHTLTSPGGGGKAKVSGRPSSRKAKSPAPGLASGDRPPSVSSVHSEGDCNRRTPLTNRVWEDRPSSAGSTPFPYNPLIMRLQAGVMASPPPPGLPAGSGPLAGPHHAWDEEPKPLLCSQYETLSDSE

[6] = potency (IC50) to HDAC1, 2, and 3, range over HDAC1, 2, and 3
[7] = read-out: Deacetylase activity (%) HDAC1
[8] = read-out: Deacetylase activity (%) HDAC2
[9] = read-out: Deacetylase activity (%) HDAC8
[10] = read-out: Deacetylase activity (%) HDAC3

Chain of HDAC1 (Q13547 whole entry): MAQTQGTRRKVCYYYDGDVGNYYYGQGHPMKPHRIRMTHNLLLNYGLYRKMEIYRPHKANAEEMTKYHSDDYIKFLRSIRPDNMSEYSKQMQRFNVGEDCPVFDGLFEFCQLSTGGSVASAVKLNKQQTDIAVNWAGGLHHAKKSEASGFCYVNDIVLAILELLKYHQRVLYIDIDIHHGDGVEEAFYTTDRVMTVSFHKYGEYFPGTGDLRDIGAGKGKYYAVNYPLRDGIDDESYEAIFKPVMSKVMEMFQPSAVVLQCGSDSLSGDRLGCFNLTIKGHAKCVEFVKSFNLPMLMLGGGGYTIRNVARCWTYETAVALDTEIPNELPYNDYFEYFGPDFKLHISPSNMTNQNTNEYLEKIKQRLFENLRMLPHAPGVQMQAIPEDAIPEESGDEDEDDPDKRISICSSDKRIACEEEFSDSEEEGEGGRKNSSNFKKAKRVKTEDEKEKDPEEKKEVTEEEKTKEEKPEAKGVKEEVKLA
Chain of HDAC2 (Q92769 whole entry): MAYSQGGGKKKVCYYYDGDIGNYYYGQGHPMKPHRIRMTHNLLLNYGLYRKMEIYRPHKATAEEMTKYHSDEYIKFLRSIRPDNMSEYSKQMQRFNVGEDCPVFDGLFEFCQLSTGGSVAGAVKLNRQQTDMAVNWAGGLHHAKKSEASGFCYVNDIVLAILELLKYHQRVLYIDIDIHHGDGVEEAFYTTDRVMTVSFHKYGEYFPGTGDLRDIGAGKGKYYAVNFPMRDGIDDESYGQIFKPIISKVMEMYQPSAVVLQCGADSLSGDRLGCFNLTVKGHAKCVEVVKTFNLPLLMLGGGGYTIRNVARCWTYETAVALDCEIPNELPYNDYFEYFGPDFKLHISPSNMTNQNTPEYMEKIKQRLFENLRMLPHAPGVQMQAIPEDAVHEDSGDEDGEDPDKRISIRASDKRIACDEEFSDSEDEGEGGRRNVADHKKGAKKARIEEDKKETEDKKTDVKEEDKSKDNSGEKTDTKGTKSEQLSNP

## CCC(CCCC(=O)Nc1ccccc1)CCC(=O)NO (racemic) [Compound 1b, 4-ethyl-N^1-hydroxy-N^8-phenyloctanediamide]
[1]; IC50 values (nM) HDAC1
  IC50: 4400 nM
[1]; [6]
  IC50: 4400 to 6000 nM
[1]; [7]
  activity at 1 µM: 81 ± 3%
  activity at 2 µM: 68 ± 5%
  activity at 4 µM: 58 ± 1%
  activity at 8 µM: 32 ± 4%
  activity at 16 µM: 19 ± 1%
[2]
  IC50: 4.9 µM
[2]; [8]
  activity at 1 µM: 86 ± 2%
  activity at 2 µM: 69 ± 1%
  activity at 4 µM: 59 ± 2%
  activity at 8 µM: 34 ± 7%
  activity at 16 µM: 23 ± 2%
[3]; 2.4 × 10^−5 M
  Deacetylase activity (%): 31 ± 2%
[3]; 3.0 × 10^−6 M
  Deacetylase activity (%): 92 ± 1%
[3]; 4.8 × 10^−5 M
  Deacetylase activity (%): 12 ± 1%
[3]; 6.0 × 10^−6 M
  Deacetylase activity (%): 82 ± 7%
[3]
  IC50: 14 ± 1 µM
[3]; […] 10^−5 M
  Deacetylase activity (%): 53 ± 3%
[4]
  IC50: 130 ± 3 nM
  HDAC8 fold selectivity HDAC1: 34 fold
  HDAC8 fold selectivity HDAC2: 38 fold
  HDAC8 fold selectivity HDAC3: 46 fold
[4]; [9]
  activity at 0.1 µM: 55 ± 2%
  activity at 0.2 µM: 39 ± 1%
  activity at […]: 83 ± 2%
  activity at 0.05 µM: 73 ± 2%
[4]; 4.0 × 10^−7 M, read-out: Deacetylase activity (%) HDAC8
  activity at 0.4 µM: 25 ± 1%
[5]
  IC50: 6 µM
[5]; [10]
  activity at 1 µM: 83 ± 7%
  activity at 2 µM: 71 ± 4%
  activity at 4 µM: 64 ± 2%
  activity at 8 µM: 52 ± 6%
  activity at 16 µM: 17 ± 8%

## CCCCCCC(CCCC(=O)Nc1ccccc1)CCC(=O)NO (racemic) [Compound 1d, 4-hexyl-N^1-hydroxy-N^8-phenyloctanediamide]
[1]; IC50 values (nM) HDAC1
  IC50: 35000 nM
[1]; [6]
  IC50: 30000 to 38000 nM
[1]; [7]
  activity at 1.25 µM: 97 ± 3%
  activity at 10 µM: 83 ± 4%
  activity at 20 µM: 67 ± 4%
  activity at 40 µM: 46 ± 1%
  activity at 80 µM: 26 ± 2%
  activity at 160 µM: 13 ± 1%
[2]
  IC50: 38 µM
[2]; [8]
  activity at 1.25 µM: 101 ± 2%
  activity at 10 µM: 79 ± 6%
  activity at 20 µM: 73 ± 2%
  activity at 40 µM: 46 ± 6%
  activity at 80 µM: 31 ± 2%
  activity at 160 µM: 16 ± 1%
[3]; 1.0 × 10^−4 M
  Deacetylase activity (%): 35 ± 3%
[3]; 1.25 × 10^−5 M
  Deacetylase activity (%): 87 ± 1%
[3]; 2.0 × 10^−4 M
  Deacetylase activity (%): 21 ± 3%
[3]; 5.0 × 10^−5 M
  Deacetylase activity (%): 56 ± 2%
[3]
  IC50: 60 ± 1 µM
[3]; […] 10^−5 M
  Deacetylase activity (%): 73 ± 2%
[4]
  IC50: 79 ± 3 nM
  HDAC8 fold selectivity HDAC1: 440 fold
  HDAC8 fold selectivity HDAC2: 480 fold
  HDAC8 fold selectivity HDAC3: 380 fold
  fold selectivity for HDAC8 over HDAC1, 2, and 3: ≥ 380 fold
[4]; [9]
  activity at 0.1 µM: 42 ± 4%
  activity at 0.0125 µM: 92 ± 1%
  activity at 0.2 µM: 27 ± 2%
  activity at […]: 78 ± 6%
  activity at 0.05 µM: 63 ± 4%
[5]
  IC50: 30 µM
[5]; [10]
  activity at 1.25 µM: 100 ± 6%
  activity at 10 µM: 88 ± 2%
  activity at 20 µM: 56 ± 4%
  activity at 40 µM: 42 ± 5%
  activity at 80 µM: 25 ± 1%
  activity at 160 µM: 5 ± 3%

## O=C(CCC(CCCC(=O)Nc1ccccc1)Cc1ccccc1)NO (racemic) [Compound 1f, 4-benzyl-N^1-hydroxy-N^8-phenyloctanediamide]
[1]; potency (IC50) with HDAC1, text, Table 4 value in μM
  IC50: 29000 nM
[1]; [7]
  activity at 5 µM: 87 ± 4%
  activity at 10 µM: 75 ± 5%
  activity at 20 µM: 58 ± 5%
  activity at 40 µM: 44 ± 2%
  activity at 80 µM: 27 ± 2%
  activity at 160 µM: 16 ± 1%
[2]
  IC50: 32 µM
[2]; [8]
  activity at 5 µM: 92 ± 4%
  activity at 10 µM: 74 ± 4%
  activity at 20 µM: 60 ± 1%
  activity at 40 µM: 47 ± 1%
  activity at 80 µM: 27 ± 5%
  activity at 160 µM: 20 ± 1%
[3]; 1.0 × 10^−4 M
  Deacetylase activity (%): 35 ± 5%
[3]; 1.25 × 10^−5 M
  Deacetylase activity (%): 88 ± 4%
[3]; 2.0 × 10^−4 M
  Deacetylase activity (%): 19 ± 2%
[3]; 5.0 × 10^−5 M
  Deacetylase activity (%): 58 ± 4%
[3]
  IC50: 62 ± 1 µM
[3]; […] 10^−5 M
  Deacetylase activity (%): 74 ± 5%
[4]
  IC50: 57 nM
  HDAC8 fold selectivity HDAC1: 510 fold
  HDAC8 fold selectivity HDAC2: 670 fold
  HDAC8 fold selectivity HDAC3: 740 fold
  fold selectivity for HDAC8 over HDAC1, 2, and 3: ≥ 510 fold
[4]; [9]
  activity at 0.1 µM: 34 ± 2%
  activity at 0.0125 µM: 87 ± 4%
  activity at 0.2 µM: 21 ± 1%
  activity at […]: 73 ± 2%
  activity at 0.05 µM: 51 ± 1%
[5]
  IC50: 42 µM
[5]; [10]
  activity at 5 µM: 90 ± 3%
  activity at 10 µM: 87 ± 4%
  activity at 20 µM: 63 ± 5%
  activity at 40 µM: 55 ± 3%
  activity at 80 µM: 33 ± 2%
  activity at 160 µM: 19 ± 2%
